Measured values published in ChEMBL document CHEMBL3217682, “Discovery of highly potent antifungal triazoles by structure-based lead fusion” (2011).
In brackets after ≈: the same amount, converted by molar mass.

Key:
Type in all cases: functional
Candida tropicalis [1] = assay: Ratio of fluconazole MIC80 to compound MIC80 for Candida tropicalis
Trichophyton rubrum = assay: Antifungal activity against Trichophyton rubrum assessed as turbidity after 24 to 72 hrs by serial dilution method
Kluyveromyces marxianus [2] = assay: Ratio of fluconazole MIC80 to compound MIC80 for Candida kefyr
Cryptococcus neoformans = assay: Antifungal activity against Cryptococcus neoformans assessed as turbidity after 72 hrs by serial dilution method
Candida parapsilosis [3] = assay: Antifungal activity against Candida parapsilosis assessed as turbidity after 24 hrs by serial dilution method; conditions: Lodderomyces parapsilosis
Aspergillus fumigatus = assay: Antifungal activity against Aspergillus fumigatus assessed as turbidity after 7 days by serial dilution method; conditions: 168 h
Candida parapsilosis [4] = assay: Ratio of fluconazole MIC80 to compound MIC80 for Candida parapsilosis
Candida tropicalis [5] = assay: Antifungal activity against Candida tropicalis assessed as turbidity after 24 hrs by serial dilution method
Kluyveromyces marxianus [6] = assay: Antifungal activity against Candida kefyr assessed as turbidity after 24 hrs by serial dilution method
Candida albicans = assay: Antifungal activity against Candida albicans assessed as turbidity after 24 hrs by serial dilution method

Structure (SMILES) | Ratio (Candida tropicalis [1]) | MIC80 (Trichophyton rubrum) [µM] | Ratio (Kluyveromyces marxianus [2]) | MIC80 (Cryptococcus neoformans) [µM] | MIC80 (Candida parapsilosis [3]) [µM] | MIC80 (Aspergillus fumigatus) [µM] | Ratio (Candida parapsilosis [4]) | MIC80 (Candida tropicalis [5]) [µM] | MIC80 (Kluyveromyces marxianus [6]) [µM] | MIC80 (Candida albicans) [µM]
OC(CN1CCC(OCc2ccccc2)CC1)(Cn1cncn1)c1ccc(F)cc1F (stereo not drawn) | 82 | 0.15 (≈ 0.0643 µg/mL) | 82 | 0.04 (≈ 0.0171 µg/mL) | 0.04 (≈ 0.0171 µg/mL) | 2.33 (≈ 0.998 µg/mL) | 82 | 0.04 (≈ 0.0171 µg/mL) | 0.15 (≈ 0.0643 µg/mL) | 0.01 (≈ 0.00428 µg/mL)
OC(CN1CCC(OCc2ccc(Cl)cc2Cl)CC1)(Cn1cncn1)c1ccc(F)cc1F (stereo not drawn) |  | 0.13 (≈ 0.0647 µg/mL) |  | 0.03 (≈ 0.0149 µg/mL) | 0.03 (≈ 0.0149 µg/mL) | 2.01 (≈ 1 µg/mL) |  | 0.13 (≈ 0.0647 µg/mL) | 0.5 (≈ 0.249 µg/mL) | 0.13 (≈ 0.0647 µg/mL)
OC(CN1CCC(OCc2cccc(Cl)c2)CC1)(Cn1cncn1)c1ccc(F)cc1F (stereo not drawn) |  | 0.03 (≈ 0.0139 µg/mL) |  | 0.03 (≈ 0.0139 µg/mL) | 0.03 (≈ 0.0139 µg/mL) | 2.16 (≈ 1 µg/mL) |  | 0.14 (≈ 0.0648 µg/mL) | 0.54 (≈ 0.25 µg/mL) | 0.14 (≈ 0.0648 µg/mL)
N#Cc1ccc(COC2CCN(CC(O)(Cn3cncn3)c3ccc(F)cc3F)CC2)cc1 (stereo not drawn) |  | 0.03 (≈ 0.0136 µg/mL) |  | 0.03 (≈ 0.0136 µg/mL) | 0.01 (≈ 0.00453 µg/mL) | 0.55 (≈ 0.249 µg/mL) |  | 0.14 (≈ 0.0635 µg/mL) | 0.55 (≈ 0.249 µg/mL) | 0.03 (≈ 0.0136 µg/mL)
CN(CC(O)(Cn1cncn1)c1ccc(F)cc1F)C1CCN(Cc2ccccc2)CC1 (stereo not drawn) |  | 2.26 (≈ 0.998 µg/mL) |  | 2.26 (≈ 0.998 µg/mL) | 0.57 (≈ 0.252 µg/mL) | 145 (≈ 64 µg/mL) |  | 2.26 (≈ 0.998 µg/mL) | 2.26 (≈ 0.998 µg/mL) | 0.57 (≈ 0.252 µg/mL)
OC(CN1CCC(OCc2ccccc2Cl)CC1)(Cn1cncn1)c1ccc(F)cc1F (stereo not drawn) |  | 0.14 (≈ 0.0648 µg/mL) |  | 0.03 (≈ 0.0139 µg/mL) | 0.03 (≈ 0.0139 µg/mL) | 2.16 (≈ 1 µg/mL) |  | 0.14 (≈ 0.0648 µg/mL) | 0.54 (≈ 0.25 µg/mL) | 0.03 (≈ 0.0139 µg/mL)
OC(CN1CCC(OCc2ccccc2F)CC1)(Cn1cncn1)c1ccc(F)cc1F (stereo not drawn) | 82 | 0.14 (≈ 0.0625 µg/mL) | 82 | 0.03 (≈ 0.0134 µg/mL) | 0.03 (≈ 0.0134 µg/mL) | 2.24 (≈ 1 µg/mL) | 82 | 0.03 (≈ 0.0134 µg/mL) | 0.56 (≈ 0.25 µg/mL) | 0.01 (≈ 0.00446 µg/mL)
CN(CCCCOc1ccccc1)CC(O)(Cn1cncn1)c1ccc(F)cc1F (stereo not drawn) |  | 0.6 (≈ 0.25 µg/mL) |  | 0.15 (≈ 0.0625 µg/mL) | 0.15 (≈ 0.0625 µg/mL) | > 154 |  | 0.04 (≈ 0.0167 µg/mL) | 0.6 (≈ 0.25 µg/mL) | 0.04 (≈ 0.0167 µg/mL)
OC(Cn1cncn1)(Cn1cncn1)c1ccc(F)cc1F [FLUCONAZOLE] |  | 3.26 (≈ 0.998 µg/mL) |  | 0.2 (≈ 0.0613 µg/mL) | 0.82 (≈ 0.251 µg/mL) | > 209 |  | 3.26 (≈ 0.998 µg/mL) | 3.26 (≈ 0.998 µg/mL) | 0.82 (≈ 0.251 µg/mL)
OC(CN1CCC(OCc2ccc(Cl)c(Cl)c2)CC1)(Cn1cncn1)c1ccc(F)cc1F (stereo not drawn) |  | 0.03 (≈ 0.0149 µg/mL) |  | 0.03 (≈ 0.0149 µg/mL) | 0.03 (≈ 0.0149 µg/mL) | 2.01 (≈ 1 µg/mL) |  | 0.13 (≈ 0.0647 µg/mL) | 0.5 (≈ 0.249 µg/mL) | 0.13 (≈ 0.0647 µg/mL)
OC(CN1CCC(OCc2cccc(Br)c2)CC1)(Cn1cncn1)c1ccc(F)cc1F (stereo not drawn) | 82 | 0.12 (≈ 0.0609 µg/mL) | 82 | 0.12 (≈ 0.0609 µg/mL) | 0.12 (≈ 0.0609 µg/mL) | 1.97 (≈ 1 µg/mL) | 82 | 0.12 (≈ 0.0609 µg/mL) | 0.49 (≈ 0.249 µg/mL) | 0.01 (≈ 0.00507 µg/mL)
OC(CN1CCC(OCc2ccc(F)cc2)CC1)(Cn1cncn1)c1ccc(F)cc1F (stereo not drawn) |  | 0.03 (≈ 0.0134 µg/mL) |  | 0.03 (≈ 0.0134 µg/mL) | 0.03 (≈ 0.0134 µg/mL) | 2.24 (≈ 1 µg/mL) |  | 0.03 (≈ 0.0134 µg/mL) | 0.56 (≈ 0.25 µg/mL) | 0.14 (≈ 0.0625 µg/mL)
